The text below walks through data of patent US7018642B2 (The Procter & Gamble Company, priority 2001, dated 2006).

Type in all cases: cell-based
The test system of assay [1] is S. epidermidis strain ATCC 35984. Briefly: Biofilm prevention screen (96-well microplate, crystal violet). The settings on record: Staphylococcus epidermidis, positive = prevention, negative = enhancement of biofilm formation, quadruplicate, read-out: average percentage reduction of biofilm formed relative to DMSO controls; for inhibition at 32 µM: ATCC35984, 32 μM; for inhibition at 160 µM: ATCC35984, 160 μM; for inhibition at 390 µM: ATCC35984, 390 μM. Here is the method:
(§1) Overnight cultures of 3 mL are made of P. aeruginosa strain PAO1 (grown in R2A medium (Handbook of Microbiological Media; CRC Press, 1997, second edition, R. M. Atlas, ed.), modified to omit Mg^2+ but to include 0.3–0.5% fructose (pH 7.0) and 3 μM ferrous ammonium sulfate), P. fluorescens strain ATCC 13525 (grown in R2A modified to omit Mg^2+ but to include 0.3–0.5% sodium pyruvate (pH 7.0)), S. epidermidis strain ATCC 35984 (grown in a ¼ dilution of TSB (Handbook of Microbiological Media; CRC Press, 1997, second edition, R. M. Atlas, ed.) supplemented with 1% fructose (pH 7.0) and 3 μM ferrous ammonium sulfate). To each type of growth medium, HEPES (pH 7.3) is optionally added to a final concentration of 10 mM.
(§2) To PS, PVC, or PP (preferably PP or PVC) round-bottom, 96-well microplates containing 100 μl per well of the respective growth medium as described above, compounds to be tested (dissolved in DMSO) are added and mixed, to give a final concentration of 250–500 μM. These microplates then also are used to make successive dilutions of the compounds in the same respective growth medium to yield microplates containing final concentrations of, for example, 160 μM and 32 μM of the same set of compounds. Control wells are included in the dilution series that contain only DMSO. From the 3 ml overnight cultures, each of the three dilution plate sets is inoculated with 5 μl per well of a 1:1 dilution in the same liquid growth media of the appropriate culture. The covered plate is then incubated with shaking, at 30° C. (for P. aeruginosa or P. fluorescens) or 37° C. (for S. epidermidis), at 200 rpm, for 16–26 hours, in a humidity controlled environment.
(§3) Cells present in biofilm attached to the microplate surface are stained with CV either after removal of the liquid from each well, followed by rinsing three times (aspiration and addition) with 150 μl per well phosphate buffered saline solution (PBS) and final addition of 100 μl per well of PBS, or by direct addition of stain to bacterial cultures without rinsing. To 100 μl per well of PBS or of bacterial culture, 25 μl/well of 1% CV solution (in ˜10% ethanol) is added. After incubation at room temperature for 45 minutes, the dye solution is removed from the plates. Residual dye is immediately removed by gentle rinsing with a stream of deionized water by filling and inverting the plates 4–5 times, or by using an automated pipettor. Rinsed plates are air-dried at room temperature for 0.5–2 hours. Bound dye is extracted by the addition of 150 μL per well of 95% ethanol, followed by vigorous mixing for 10–15 seconds and incubation for 45 minutes at room temperature without shaking. Subsequently, either undiluted or diluted (in ethanol) samples of extracted CV are transferred to flat bottom, polystyrene microtiter plates and absorbances at 586 nm were measured in a microplate reader. Readings from wells containing compounds are compared to the average of data from control wells that contain only DMSO. Replicate samples are measured, and results are reported as averages of the replicate well data points.
(§4) Data are expressed in terms of the average percentage reduction of biofilm formed in the presence of each compound, relative to the DMSO controls, for quadruplicate samples. Assays are run using the three compound concentrations indicated. Positive numbers indicate prevention of biofilm formation by a compound, and negative numbers indicate enhancement of biofilm formation by a compound (percentage coefficients of variation are ≦10%).

The subject of assay [2] is P. fluorescens strain ATCC 13525. Described as above. To be noted: Pseudomonas fluorescens, positive = prevention, negative = enhancement of biofilm formation, quadruplicate, read-out: average percentage reduction of biofilm formed relative to DMSO controls; for inhibition at 32 µM: ATCC13525, 32 μM; for inhibition at 160 µM: ATCC13525, 160 μM; for inhibition at 390 µM: ATCC13525, 390 μM. As to the method:
as §1, §2, §3, §4

The test system of assay [3] is P. aeruginosa strain PAO1. Described as above. To be noted: Pseudomonas aeruginosa, positive = prevention, negative = enhancement of biofilm formation, quadruplicate, read-out: average percentage reduction of biofilm formed relative to DMSO controls. Here is the method: as §1, §2, §3, §4
The subject of assay [4] is S. epidermidis strain ATCC 35984. Briefly: Improved biofilm dispersion screen (already-formed biofilms, crystal violet). The settings on record: Staphylococcus epidermidis, ATCC35984, no NaOH, positive = dispersion, negative = enhancement of pre-existing biofilm, quadruplicate, read-out: average percentage reduction of biofilm relative to the two control values (dispersion). As to the method: (§5) A modification of method disclosed in Reference Example 2, which greatly improves the sensitivity and reproducibility of the dispersion screen is hereby disclosed. […] In the modification described herein, compounds are added in the presence of the fresh liquid growth media, such that the resultant biofilms continue to grow, unless a test compound triggers their dispersion. Overnight cultures are made as above, and 100 μL of the appropriate liquid growth media are dispensed into duplicate 96 well microplates—in this fashion, two identical microplates are set up for each bacterial species to be assayed. Neither compounds nor DMSO are added prior to the inoculation of bacteria, and growth in the duplicate plates for 24 hours is allowed using the conditions specified in Reference Example 1. After growth of biofilm to be tested in the wells, cells present in biofilm attached to one of the duplicate microplates is stained with CV, quantitated as described in Reference Example 1, and the data for the entire plate averaged, resulting in a growth control value, t0. The remaining replicate of each microplate pairs is treated with compounds in DMSO, or DMSO alone for control wells, by first removing the cell suspensions from the wells, then adding fresh 100 μL volumes of the same appropriate liquid growth media, followed by direct addition and mixing of the compound DMSO solutions to give final compound concentrations of 390 μM. Incubation of the compound-containing microplates is then continued for an additional 22–26 hours using the same conditions described in Reference Example 1. Cell suspensions are then removed, 100 μL per well of a 0 mM NaOH (S. epidermidis), 20 mM NaOH (P. fluorescens), or 30 mM NaOH (P. aeruginosa) solution in PBS is added, and incubation at room temperature is allowed for 30 minutes. No addition of NaOH is made to the S. epidermidis suspension since a test assay indicated no amplification by base with S. epidermidis. The microplates are subsequently rinsed three times with 150 μL per well of PBS, followed by final liquid removal, staining with CV and quantitation as described in Reference Example 1. Data for each well that contained compound result in a compound value, R, and data for control wells that contained DMSO only are averaged to generate a second control value, t24. The effect of each compound tested on dispersion of the biofilm compared to the two control values is calculated thus: [formula] […] Data are expressed in terms of the average percentage reduction of biofilm formed in the presence of each compound, relative to the two control values, for quadruplicate samples. Assays are run as described above, using compound concentrations of 390 μM. Positive numbers indicate dispersion (reduction) of pre-existing biofilms by a compound, and negative numbers indicate enhancement (stimulation of growth) of pre-existing biofilms by a compound (percentage coefficients of variation are ≦15%).

For assay [5], the system named is P. fluorescens strain ATCC 13525. Described as above. The settings on record: Pseudomonas fluorescens, ATCC13525, 20 mM NaOH step, positive = dispersion, negative = enhancement of pre-existing biofilm, quadruplicate, read-out: average percentage reduction of biofilm relative to the two control values (dispersion). As to the method: as §5
For assay [6], the system named is P. aeruginosa strain PAO1. The description is as above. To be noted: Pseudomonas aeruginosa, 30 mM NaOH step, positive = dispersion, negative = enhancement of pre-existing biofilm, quadruplicate, read-out: average percentage reduction of biofilm relative to the two control values (dispersion). As to the method:
as §5

For the molecule `CCCCCCCCNC(=O)[C@@H]1CCCCN1C(=O)OC(C)(C)C` [Compound 19], the inhibition at 32 µM was -11% in assay [1], 6% in assay [2] and 10% in assay [3]. Moreover, the results for the inhibition at 160 µM in assay [1], in assay [2] and in assay [3] were -33%, 8% and -2%, respectively. The inhibition at 390 µM in assay [1] is -11%; in assay [2], 10%; in assay [3], -17%; in assay [4], -3%; in assay [5], 0%; in assay [6] it was -25%.

As for `CCCCCCCCNC(=O)[C@@H]1CCCCN1` [Compound 20], the inhibition at 32 µM was 1% in assay [1], -16% in assay [2] and -16% in assay [3]. The values for the inhibition at 160 µM in assay [1], in assay [2] and in assay [3] were 1%, -14% and -22%, respectively. For the same molecule, the inhibition at 390 µM in assay [1] was -59%; in assay [2] it was 40%; in assay [3], 15%; in assay [4], 0%; in assay [5], 25%; in assay [6], 46%.

`CCCCCCCCNC(=O)[C@@H]1CCCCN1C(C)=O` [Compound 21]: the inhibition at 32 µM in assay [1] was -15%; in assay [2] it was 2%; in assay [3], -6%. Further, the values for the inhibition at 160 µM in assay [1], in assay [2] and in assay [3] were -23%, 4% and -12%, respectively. Also, the inhibition at 390 µM in assay [1] is -24%; in assay [2] it was 20%; in assay [3] it was -11%; in assay [4] it was -8%; in assay [5] it was -16%; in assay [6], -39%.

Regarding `CCCCCCCCNC(=O)[C@H]1CCCCN1C(=O)OC(C)(C)C` [Compound 22, (R)-(+)-1-(tert-Butoxycarbonyl)-2-piperidinecarboxylic acid n-octyl amide], the inhibition at 32 µM is -6% in assay [1], 3% in assay [2] and 0% in assay [3]. For the same molecule, the inhibition at 160 µM was -17% in assay [1], 27% in assay [2] and -8% in assay [3]. The inhibition at 390 µM was 3% in assay [1]; 25% in assay [2]; -6% in assay [3]; 0% in assay [4]; 0% in assay [5]; -54% in assay [6].

Turning to `CCCCCCCCNC(=O)[C@H]1CCCCN1` [Compound 23, (R)-(+)-2-piperidinecarboxylic acid n-octyl amide], the inhibition at 32 µM was -1% in assay [1], -23% in assay [2] and -5% in assay [3]. Besides, the inhibition at 160 µM in assay [1] was 15%; in assay [2] it was -13%; in assay [3], -31%. For the same molecule, the inhibition at 390 µM in assay [1] is -36%; in assay [2], 21%; in assay [3], -3%; in assay [4], 0%; in assay [5], 26%; in assay [6], 0%.

On to `CCCCCCCCNC(=O)[C@H]1CCCCN1C(C)=O` [Compound 24], for which the inhibition at 32 µM in assay [1] is -8%; in assay [2], -1%; in assay [3], -12%. Further, the inhibition at 160 µM in assay [1] is -20%; in assay [2], -6%; in assay [3] it was -22%. In addition, the inhibition at 390 µM in assay [1] was -53%; in assay [2], -2%; in assay [3], -11%; in assay [4] it was -8%; in assay [5], 0%; in assay [6], -17%.
